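Where inhibition never reached the appropriate level, the endpoint shown equals the highest concentration tested. Otherwise, values were interpolated linearly from a five-concentration, 48-hour dose response in 96-well plates. GI50 is the concentration that inhibits growth by half.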 Active and inactive are the calls of the source. Rule as the data show it: active = GI50 up to about 1.1 µM and inactive = higher.

The record followed here is ChEMBL document CHEMBL1201862, “PubChem BioAssay data set” (2004).

Some test systems named below: MDA-MB-435; RXF 393; CCRF-CEM; SNB-75; KM12; MCF7; K562; LOX IMVI; MDA-MB-231; NCI-H23; HCT-15; SK-MEL-2; EKVX; TK-10; NCI-H522; A549; SNB-19; SK-MEL-5; NCI-H226; Hs-578T.
What all share (assay): NCI anticancer screen, dose series, 48 h

Regarding `CO/N=C(\C)c1ccc(Nc2c3ccccc3nc3occc23)cc1`, the GI50 was 0.0451 µM (active) with MDA-MB-435; 0.0813 µM (active) with RXF 393; 0.47 µM (active) in the assay with CCRF-CEM; 0.41 µM (active) in the assay with SNB-75; 0.201 µM (active) in the assay with KM12; 0.168 µM (active) in the assay on MCF7. Also, the GI50 in the assay on K562 is 0.195 µM (active); in the assay with LOX IMVI it was 0.59 µM (active); in the assay with MDA-MB-231, 0.741 µM (active); in the assay on NCI-H23, 2.36 µM (inactive); in the assay with HCT-15, 0.191 µM; with SK-MEL-2 it was 0.244 µM (active). For the same molecule, the GI50 with EKVX is 3.74 µM (inactive); with TK-10, 1.21 µM (inactive); in the assay with NCI-H522, < 0.0317 µM (active); with A549 it was 0.643 µM (active); with SNB-19, 2.05 µM (inactive); with SK-MEL-5 it was 0.323 µM (active). The values for the GI50 in the assay with NCI-H226 and in the assay on Hs-578T were 4.34 µM (inactive) and 0.482 µM (active), respectively.
As for `CN(NC(=O)c1cccs1)C1=NCCN1`, the GI50 with MDA-MB-435, in the assay on RXF 393, in the assay on CCRF-CEM, with SNB-75, with KM12 and with MCF7 was > 100 µM (inactive) in each case. Further, the GI50 with K562 is > 100 µM (inactive); in the assay with LOX IMVI, > 100 µM (inactive); with MDA-MB-231, > 100 µM (inactive); in the assay on NCI-H23, > 100 µM (inactive); in the assay on HCT-15 it was more than 100 µM; in the assay on SK-MEL-2, > 100 µM (inactive). In addition, the GI50 in the assay on EKVX was > 100 µM (inactive); with TK-10 it was 23.8 µM (inactive); in the assay with NCI-H522, > 100 µM (inactive); in the assay with A549, > 100 µM (inactive); in the assay on SNB-19 it was > 100 µM (inactive); in the assay with SK-MEL-5, > 100 µM (inactive). The GI50 in the assay with NCI-H226 and with Hs-578T was > 100 µM (inactive) in each case.
